{"source": "patent US20150216933A1", "about": "“HEMATOPOIETIC STEM CELL GROWTH FACTOR” (DUKE UNIVERSITY, priority 2008, published 2015)", "key": {"[1]": {"test_system": "Bone marrow lineage negative (lin-) progenitor cells", "experiment": "7 day culture of bone marrow lin- progenitor cells with individual cytokines or TSF with and without PTN", "assay_type": "cell-based", "conditions": "7 days, individual cytokine", "description": "Bone marrow lineage negative (lin-) progenitor cells were placed in culture for 7 days with 20 ng/mL thromobopoietin (TPO), 120 ng/mL stem cell factor (SCF) or 50 ng/mL Flt-3 ligand or the combination of all 3 cytokines (TSF) with and without 100 ng/mL pleiotrophin (PTN)."}, "PI 3-kinase": {"test_system": "PI 3-kinase", "assay_type": "cell-based, mouse", "source_text": "In order to determine a potential mechanism through which PTN mediates HSC expansion, an examination was made as to whether PTN altered pathways that are known to be affected by RPTPβ/ζ (Meng et al, Proc Natl Acad Sci USA 97: 2603-8 (2000), Stoica et al, J Biol Chem 276:16772-9 (2001), Landgraf et al, J Biol Chem 283:25036-45 (2008), Deuel et al, Arch Biochem Biophys 397:162-71 (2002)). Canonical PTN signaling occurs via binding and inactivation of RPTPβ/ζ (Meng et al, Proc Natl Acad Sci USA 97: 2603-8 (2000)), which can facilitate the tyrosine phosphorylation of several intracellular substrates, including Akt and β-catenin (Souttou et al, J Biol Chem 272:19588-93 (1997), Gu et al, FEBS Lett 581:382-8 (2007)). […] BM 34^− KSL cells were treated with TSF with and without 100 ng/mL PTN in the presence and absence of 10 μM wortmannin, a PI 3-kinase inhibitor (Souttou et al, J Biol Chem 272:19588-93 (1997))."}}, "data": [{"molecule": "thromobopoietin: cytokine, 20 ng/mL alone in culture", "values": [{"measurement": "support of BM progenitor cells in culture", "setting": "[1]", "value": "Neither thromobopoietin alone nor Fit-3 ligand alone supported viable BM progenitor cells"}]}, {"molecule": "COC[C@H]1OC(=O)c2coc3c2[C@@]1(C)C1=C(C3=O)[C@@H]2CCC(=O)[C@@]2(C)C[C@H]1OC(C)=O", "note": "[wortmannin]", "values": [{"measurement": "reduction in BM KSL cell expansion compared to TSF+PTN alone", "setting": "PI 3-kinase", "value": 8.1, "unit": "fold"}, {"measurement": "reduction in total cell expansion compared to TSF+PTN alone", "setting": "PI 3-kinase", "value": 3.4, "unit": "fold"}]}, {"molecule": "SCF: stem cell factor, 120 ng/mL, with or without PTN", "values": [{"measurement": "support of BM progenitor cells in culture", "setting": "[1]", "value": "modest expansion"}]}, {"molecule": "Fit-3 ligand: cytokine, 50 ng/mL alone in culture (protein, UniProt P49771 27-235, looked up) Fms-related tyrosine kinase 3 …: TQDCSFQHSPISSDFAVKIRELSDYLLQDYPVTVASNLQDEELCGGLWRLVLAQRWMERLKTVAGSKMQGLLERVNTEIHFVTKCAFQPPPSCLRFVQTNISRLLQETSEQLVALKPWITRQNFSRCLELQCQPDSSTLPPPWSPRPLEATAPTAPQPPLLLLLLLPVGLLLLAAAWCLHWQRTRRRTPRPGEQVPPVPSPQDLLLVEH", "values": [{"measurement": "support of BM progenitor cells in culture", "setting": "[1]", "value": "Neither thromobopoietin alone nor Fit-3 ligand alone supported viable BM progenitor cells"}]}]}
